Results from patent US20190321493A1, “MATERIALS AND METHODS FOR TREATING REGIONAL PAIN” (priority 2016, published 2019).

How the values were obtained:
[1] = Drug distribution in DRG after convection enhanced delivery of DAPI; format: in vivo, swine; conditions: FIG. 5
Description: FIGS. 5A-5C illustrate drug distribution in swine DRG. […] is a schematic of convection enhanced delivery (CED) needle placement in a DRG. FIG. 5B contains an image of a control DRG. FIG. 5C contains an image of a 4′,6-diamidino-2-phenylindole (DAPI) injected DRG.
An incision was made in the overlying skin at an anatomical level affected by pain in a patient. The subcutaneous fat and musculature were incised and reflected, exposing the bony lamina. Using appropriate instruments, a portion of the lamina was removed to expose the neural elements. The meningeal sleeve surrounding the DRG and spinal nerve was surgically exposed by microdissection of bone and tissue, which may require extending the laminectomy dissection, using standard techniques such as blunt or sharp dissection with meticulous hemostasis. Thereby the DRG was exposed and grossly visualized. A convection enhanced delivery needle was placed into the exposed DRG. RTXcap was injected in a preparation that also contains a contrast agent (e.g., in this case DAPI) allowing direct visualization of analgesic agent injection by eye sight with or without a surgical loupe or surgical operating microscope.

[2] = tested on: nociceptive fibers in the dorsal horn of the spinal cord; assay: Periganglionic (epidural) injection of RTX, immunohistochemistry of spinal cord dorsal horn; format: in vivo, swine; conditions: FIG. 3B vs 3A
[3] = tested on: nociceptive neurons of the dorsal root ganglion (DRG); assay: MRI-guided intraganglionic injection of RTX (RTXcap) with gadoteridol into swine DRG, substance P immunohistochemistry; format: in vivo
Description: FIGS. 1A-1D are fluorescent immunohistochemistry (IHC) images. […] Nociceptive fibers in all panels are visualized using the biomarker substance P (sP).
FIGS. 2A-2C are fluorescent IHC images of a DRG. […] The outcomes in FIG. 2B and FIG. 2C were predicted from intraprocedural imaging performed during RTX delivery (noted as a success (B) and failure (C) to achieve the intended contrast media dispersion).
Domestic swine were chosen because the porcine lumbar spinal column resembles the human lumbosacral anatomy. Swine were sedated with Telazol and Xylazine, intubated and kept under deep isoflurane inhalation anesthesia for the duration of the procedure titrated to effect. Swine were placed in an MRI scanner (GE 3T, GE Healthcare). Overview MRI imaging was obtained of the lumbosacral spine. DRG at the L4, L5, S1, and S2 level were outlined (FIG. 1A).
The guide needle was passed through the skin lateral to the midline and incrementally advanced ventromedially toward the DRG intraprocedural MRI imaging monitored advancement of the needle, and any deviations from the optimal trajectory were corrected. When the needle tip was visualized directly adjacent to the dorsal aspect of the DRG, the stylet of the guide needle was withdrawn. The stepped stylet was then inserted through the guide needle. The length of the stepped stylet exceeded the length of the guide needle and therefore only the stepped tip of the stylet but not the Quincke tip of the guide needle penetrated the DRG parenchyma. The stepped stylet was then withdrawn and replaced by the stepped needle. The prior insertion of the stepped stylet prevented clogging of the narrow needle tip. RTX 5 μg and gadoteridol 1% V/V was injected in a volume of 50 μl per DRG over a period of 5 minutes (RTX was solubilized in water with sulfobutyl ether β-cyclodextrin, designated as RTXcap). MRI imaging verified when the injection was successful and when the injection needed to be repeated (FIG. 4). Pigs were sacrificed 5 weeks post injection and the tissues harvested for histopathological analysis.

## N=C(N)c1ccc(-c2cc3ccc(C(=N)N)cc3[nH]2)cc1 [DAPI, 4′,6-diamidino-2-phenylindole]
[1]
  distribution in DRG: good distribution throughout the DRG

## C=C(C)[C@]12C[C@@H](C)[C@@]34O[C@](Cc5ccccc5)(O[C@@H]1[C@@H]3C=C(COC(=O)Cc1ccc(O)c(OC)c1)C[C@]1(O)C(=O)C(C)=C[C@@H]41)O2 [RTX, resiniferatoxin]
[2]
  nociceptive fibers in the dorsal horn of the spinal cord: elimination of nociceptive fibers
[3]; RTX 5 μg + gadoteridol 1% V/V, 50 μl per DRG, tissues 5 weeks post injection
  neurolysis of the targeted tissue: can result in neurolysis of the targeted tissue
[3]; after failed image-guided injection, FIG. 2C
  nociceptive neurons (sP fluorescence) in DRG: normal numbers of nociceptive neurons
[3]; after successful MRI-guided injection, FIG. 2B
  nociceptive neurons (sP fluorescence) in DRG: elimination of most nociceptive neurons
[3]; intraganglionic injection, RTX solubilized in water with sulfobutyl ether β-cyclodextrin, FIG. 1B vs 1A
  nociceptive fibers (substance P) in the dorsal horn of the spinal cord: elimination of nociceptive fibers
[3]; intraganglionic injection, RTX solubilized in water with sulfobutyl ether β-cyclodextrin, FIG. 1D vs 1C
  nociceptive fibers (substance P) in the dorsal root ganglion: elimination of nociceptive fibers
